The results in this text go back to PubChem BioAssay (NCI).

Test systems include ACHN renal; CCRF-CEM leukemia; COLO 205 colon; EKVX NSCLC; NCI-H23 lung; SK-OV-3 ovarian; TK-10 renal; UO-31 renal; T-47D breast.
Holding throughout (assay): DTP human tumour cell line panel, 48 h

“And” between values parts separate entries of the source, which are not always exact repeats. Equal entries are not always repeated.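 Cells were grown in 96-well plates and exposed to each compound for 48 hours at five concentrations; endpoints were interpolated linearly between bracketing concentrations, or set to the highest concentration if not reached. At the GI50, growth is halved. Definition used: TGI = concentration required for complete inhibition of growth.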

As a reminder, the TGI is the concentration at which net growth stops. High values mean lower sensitivity of the cells, low ones greater sensitivity of the cells. Take `CCC1(C(=O)OC)CCc2c(OC)ccc(OC)c2C1=O` (configuration not stated): the TGI in the test with ACHN renal, in the test on CCRF-CEM leukemia, with COLO 205 colon, with EKVX NSCLC, in the test on NCI-H23 lung and in the test on SK-OV-3 ovarian was over 100 µM each time. Moreover, the TGI in the test on TK-10 renal and in the test with UO-31 renal was over 100 µM throughout.

With `CN(C)CC/C(=N\Nc1ccc(Cl)c(Cl)c1)c1ccccc1`, the total growth inhibition concentration (TGI) stood at 3.05 µM with ACHN renal; 6.18 µM in the test on CCRF-CEM leukemia; 3.15 µM with COLO 205 colon; 3.93 µM with EKVX NSCLC; 3.67 µM in the test with NCI-H23 lung; 14.1 µM in the test with SK-OV-3 ovarian. Moreover, the TGI in the test with TK-10 renal was determined as 3.68 µM; with UO-31 renal, 3.25 µM.

Regarding `O=C1[C@@H]2C3SC(c4ccccc43)[C@@H]2C(=O)N1c1ccccc1`, the TGI in the test on ACHN renal, in the test on CCRF-CEM leukemia, in the test with COLO 205 colon, in the test with EKVX NSCLC, in the test on NCI-H23 lung and in the test on SK-OV-3 ovarian was over 100 µM in each case. Also, the TGI in the test on TK-10 renal and in the test on UO-31 renal was over 100 µM in each case.

`NC(=S)NNC(=O)CCC(=O)Nc1ccc(Cl)cc1Cl`: the concentration for total growth inhibition (TGI) with ACHN renal, in the test with CCRF-CEM leukemia, in the test on COLO 205 colon, with NCI-H23 lung, in the test with SK-OV-3 ovarian and with TK-10 renal was over 100 µM throughout. Moreover, the TGI in the test on UO-31 renal is over 100 µM.

As a reminder, the GI50 is the concentration that inhibits growth by half. Turning to `CCC[CH2][Ge]([CH2]CCC)([CH2]CCC)[O]C(=O)C(OC)c1ccccc1` (configuration not stated), the GI50 in the test with ACHN renal is 25.2 µM; in the test on CCRF-CEM leukemia it was 2.09 µM; in the test with COLO 205 colon, 45.8 µM; with EKVX NSCLC, 16.4 µM; in the test with NCI-H23 lung, 6.86 µM; with SK-OV-3 ovarian, over 94.2 µM. Besides, the figures for the GI50 in the test with TK-10 renal and in the test on UO-31 renal were over 91.9 µM and over 41.7 µM, respectively. The TGI with ACHN renal is over 75.2 µM; with CCRF-CEM leukemia, over 100 µM; with COLO 205 colon, over 100 µM; in the test with EKVX NSCLC, over 100 µM; in the test on NCI-H23 lung it was 51.8 µM; in the test with SK-OV-3 ovarian, over 100 µM. Besides, the TGI in the test with TK-10 renal and in the test with UO-31 renal was over 100 µM in each case.

For `CCOC(=O)C(Cc1ccccc1)NC(=O)OC(C)(C)C` (configuration not stated), the TGI with ACHN renal, in the test on CCRF-CEM leukemia, in the test with COLO 205 colon, in the test on NCI-H23 lung, in the test on SK-OV-3 ovarian and in the test with TK-10 renal was over 100 µM throughout. Moreover, the TGI in the test on UO-31 renal is over 100 µM.

With `CC(C)(C)OC(=O)NC1CCC[C@H]1O` (some centres not stated), the TGI in the test with ACHN renal, with CCRF-CEM leukemia, in the test on EKVX NSCLC, in the test with NCI-H23 lung, in the test with SK-OV-3 ovarian and in the test with TK-10 renal was over 100 µM throughout. In addition, the TGI in the test on UO-31 renal is over 100 µM.

As for `O=C(O)CCCCCO`, the total growth inhibition concentration (TGI) with ACHN renal, with CCRF-CEM leukemia, with COLO 205 colon, in the test with EKVX NSCLC, in the test on NCI-H23 lung and in the test on SK-OV-3 ovarian was over 100 µM each time. Moreover, the TGI in the test on TK-10 renal and in the test on UO-31 renal was over 100 µM each time.

On to `Nc1nc(N)c(N=O)c(Nc2ccc(I)cc2)n1`, for which the TGI with ACHN renal is over 100 µM; with CCRF-CEM leukemia, 89.9 µM; in the test with COLO 205 colon it was 33.2 µM; with EKVX NSCLC, over 100 µM; in the test with NCI-H23 lung it was 82.5 µM; in the test on SK-OV-3 ovarian, 39.2 µM. Besides, the TGI in the test on TK-10 renal is 62.1 µM; in the test with UO-31 renal, over 100 µM.

Consider `O=C(/C=C/c1ccccc1O)c1cccnc1`, for which the TGI in the test with ACHN renal, in the test on CCRF-CEM leukemia, in the test with EKVX NSCLC, in the test with NCI-H23 lung, in the test on SK-OV-3 ovarian and with TK-10 renal was over 100 µM in each case. In the test on UO-31 renal, this molecule showed a TGI of over 100 µM.

`Nc1ncnc2c(C3OC(CO)C(O)C3O)scc12` (configuration not stated): the GI50 in the test on ACHN renal was 0.127 µM; in the test on EKVX NSCLC, 0.269 µM; with NCI-H23 lung it was 0.0585 µM; in the test on TK-10 renal it was 0.0186 µM. In addition, the concentration for total growth inhibition (TGI) in the test on ACHN renal is 1.9 µM and 3.66 µM; in the test on CCRF-CEM leukemia, 4.88 µM and 1.56 µM; with COLO 205 colon, 1.15 µM and 1.23 µM; in the test on EKVX NSCLC, 4.29 µM; in the test on NCI-H23 lung, 1.33 µM and 1.39 µM; in the test with SK-OV-3 ovarian, 0.0357 µM and 0.075 µM. Also, the total growth inhibition concentration (TGI) was 4.01 µM and 4.24 µM in the test with TK-10 renal; 4.56 µM in the test with UO-31 renal.

As for `CC(=O)OC1C/C(C)=C/CCC(C)/C=C/C2(C)CCC(C(C)(C)O)C12` (configuration not stated), the TGI with ACHN renal, in the test on CCRF-CEM leukemia, in the test on COLO 205 colon, in the test with EKVX NSCLC, with NCI-H23 lung and in the test with SK-OV-3 ovarian was over 100 µM throughout. The TGI in the test on TK-10 renal and with UO-31 renal was over 100 µM throughout.

Take `O=C(OCC1OC(OC(=O)c2cc(O)c(O)c(OC(=O)c3cc(O)c(O)c(O)c3)c2)C(OC(=O)c2cc(O)c(O)c(OC(=O)c3cc(O)c(O)c(O)c3)c2)C(OC(=O)c2cc(O)c(O)c(OC(=O)c3cc(O)c(O)c(O)c3)c2)C1OC(=O)c1cc(O)c(O)c(OC(=O)c2cc(O)c(O)c(O)c2)c1)c1cc(O)c(O)c(OC(=O)c2cc(O)c(O)c(O)c2)c1` (configuration not stated): the GI50 is 12.3 µM in the test with ACHN renal; 18.2 µM in the test on CCRF-CEM leukemia; 14.5 µM in the test on COLO 205 colon; 13.5 µM in the test on EKVX NSCLC; 18.9 µM in the test with NCI-H23 lung; 17.3 µM in the test with SK-OV-3 ovarian. Besides, the GI50 in the test with T-47D breast was 13 µM; in the test with TK-10 renal, 7.46 µM; with UO-31 renal it was 17.4 µM. In addition, the TGI in the test with ACHN renal was 32.8 µM; in the test on CCRF-CEM leukemia, over 50 µM; with COLO 205 colon, over 50 µM; in the test with EKVX NSCLC, over 50 µM; in the test on NCI-H23 lung, over 50 µM; with SK-OV-3 ovarian, over 50 µM. Besides, the TGI was over 50 µM in the test on T-47D breast, 28.2 µM in the test on TK-10 renal and over 50 µM with UO-31 renal.
